# “And” between values parts separate entries of the source, which are not always exact repeats. Identical values can stand only once. “Also recorded” adds a separate entry of the source. Like-named read-outs stand apart in the source and are kept apart here.
# Experiments:
# human CYP17A1 [1] = biological target: T1, human CYP17A1 (Homo sapiens, UniProt P05093); set-up: method as in PMID 28373265; details: ref [11]; cited from earlier work
# T1 construct: made in house
# T1 sequence (P05093 24-508 limits assumed): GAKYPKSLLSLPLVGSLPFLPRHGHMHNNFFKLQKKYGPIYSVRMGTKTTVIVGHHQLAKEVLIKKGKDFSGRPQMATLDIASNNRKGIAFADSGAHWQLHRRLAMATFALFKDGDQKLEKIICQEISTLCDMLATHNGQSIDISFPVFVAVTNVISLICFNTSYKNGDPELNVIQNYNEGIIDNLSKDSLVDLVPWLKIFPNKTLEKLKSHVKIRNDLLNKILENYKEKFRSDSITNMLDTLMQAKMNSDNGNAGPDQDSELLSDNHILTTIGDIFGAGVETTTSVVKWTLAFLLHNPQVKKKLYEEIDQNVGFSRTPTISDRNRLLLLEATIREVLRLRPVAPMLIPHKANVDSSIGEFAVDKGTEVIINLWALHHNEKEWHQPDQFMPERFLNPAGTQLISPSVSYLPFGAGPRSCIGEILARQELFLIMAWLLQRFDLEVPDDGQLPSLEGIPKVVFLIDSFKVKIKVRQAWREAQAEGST
# PC3 cells = test: Prostate cancer cell line proliferation screening (GR), PC3; format: cell-based, human; details: 10 µM, 48 h
# Experimental: Next, we tested the effect of compounds 1a–1e on prostate cancer derived cell lines. The anti-proliferative activity was determined in vitro by adding 10 µM compound to each of three prostate cancer cell lines (LNCaP, DU145, and PC3). As an additional comparison, immortalized non-cancerous fibroblasts (BJ hTERT) were used. These cancer cell lines are considered the classic standard of PCa cell culture. Since these cell lines grew at very different rates, inhibition of growth rate (GR) was used as a metric. All compounds except 1e were non-toxic to non-cancerous cells. Compounds 1a and 1c were both cytotoxic in the PC3 cell line (Figure 3). […] DU145 cells were weakly affected by only compound 1e with growth rate inhibition more than 50% (GR < 0.5). […] We observed substantial susceptibility of PC3 cells in comparison to DU145 (see Supplementary Materials S3 for GR50 in PC3 cells). These two cell lines are similar in many respects. […] However, they differ in their origins, PC3 being derived from a lumbar vertebral metastatic prostate tumour and DU145 from a brain metastatic prostate tumour. […] By observing a uniform response of all cell lines used in the present study to 5-fluorouracil (5-FU), we were able to rule out any general cell dependent variability in chemosensitivity towards anti-metabolite treatment. Still, chemoresistance in PC3 and DU145 may be mediated by other mechanisms. While AR also functions as a tumour suppressor inhibiting cell proliferation, it is possible in AR deprived cells to observe growth inhibition when cells retain necessary coregulators. […]
# (§1) Cells were grown to approximately 80% confluence in 150 mm culture dishes and harvested by 0.25% Trypsin/EDTA (Gibco) treatment. Released cells were counted and seeded in 384 well plates (Falcon, ref. 353962) in 30 µl media with a cell count of 1500 (BJ cells, PC-3) or and 3500 (LNCaP (Lund)) cells per well. […] The cells incubated for 24 h, after which cell counts in wells of one 384-well plate were determined as described below (time zero). […]
# [2] = biological target: T2, human cytochrome P450 17A1 (Homo sapiens, UniProt P05093); details: ref [10]; read-out: CYP17A1 Kd; cited from earlier work
# T2 construct: made in house
# T2 sequence (P05093 1-508): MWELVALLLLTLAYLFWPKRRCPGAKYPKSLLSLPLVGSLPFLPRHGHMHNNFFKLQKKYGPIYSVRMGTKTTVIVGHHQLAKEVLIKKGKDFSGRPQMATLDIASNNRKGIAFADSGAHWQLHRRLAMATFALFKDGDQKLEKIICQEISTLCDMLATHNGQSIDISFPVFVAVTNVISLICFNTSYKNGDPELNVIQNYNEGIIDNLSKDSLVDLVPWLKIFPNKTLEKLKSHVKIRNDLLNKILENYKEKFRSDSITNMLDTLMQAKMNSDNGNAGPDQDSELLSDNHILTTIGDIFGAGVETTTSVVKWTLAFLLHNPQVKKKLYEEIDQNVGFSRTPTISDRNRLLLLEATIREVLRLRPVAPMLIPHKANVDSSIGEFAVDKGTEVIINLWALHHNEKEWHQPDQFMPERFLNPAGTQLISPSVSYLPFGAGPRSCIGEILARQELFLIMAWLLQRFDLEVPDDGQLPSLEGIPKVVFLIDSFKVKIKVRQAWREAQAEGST
# human CYP17A1 [3] = biological target: T1, human CYP17A1; test: Cytochrome P450 17A1 progesterone 17α-hydroxylation inhibition assay; format: biochemical; details: recombinant purified CYP17A1
# Experimental: Regardless of their binding affinity, all compounds were tested for their ability to inhibit progesterone 17α-hydroxylation by recombinant purified CYP17A1 (Supplementary Materials S2).
# Purified recombinant human CYP17A1 (20 pmol) and human full-length cytochrome P450 reductase (80 pmol) were used to convert progesterone (purchased from Acros Organics, Fair Lawn, NJ, USA) (6 µM) to 17α-hydroxyprogesterone. Test inhibitors were dissolved in DMSO and initially tested in concentrations ranging from 1.3 to 41 µM. In subsequent assays the range of inhibitor concentrations was optimized to best define the IC50 of individual compounds. Reactions were run and the 17α -hydroxyprogesterone product measured by LC-MS as previously published.
# IC50 curves for compounds inhibiting CYP17A1 progesterone 17-hydroxylation (black circles),
# CYP21A2 progesterone 21-hydroxylation (red diamonds), CYP3A4 nifedipine metabolism
# (green squares), and CYP2D6 quinidine metabolism (blue triangles).
# (§2) (1 picture or pasted object on this page, not shown here)
# [4] = biological target: T2, human cytochrome P450 17A1; test: Spectral binding assay (CYP17A1 ligand binding); details: purified recombinant human CYP17A1, spectral titration
# From the text: The target compounds were initially tested for binding mode and affinity for CYP17A1 using a spectral binding assay. This assay can distinguish the mode of interaction, with a blue shift of the Soret absorbance occurring when ligand displaces water from the heme iron to generate a five-coordinate iron without direct coordination to the heme iron (type I, similar to most substrates) or a red shift of the Soret peak when the ligand nitrogen replaces the water to directly interact with the six-coordinate iron (type II, similar to many inhibitors). […] This 3-pyridyl fragment is also found in abiraterone.
# Initial ligand binding was evaluated by measuring absorbance changes in CYP17A1 upon addition of ligands. Purified recombinant human cytochrome P450 17A1 enzyme (1 µM) in buffer (25 mM potassium phosphate, pH 7.4, 200 mM NaCl, 20% glycerol) was titrated with ligands. Ligands were dissolved in DMSO and added to three concentrations (500, 1000, and 2000 nM). The spectral intensity difference (ΔA) was measured as difference between […]. The Amin was typically at ~410 nm and Amax at ~440 nm for the type II changes observed for these ligands.
# S2. Binding spectra and CYP IC50 curves
# Difference spectrum of cytochrome P450 17A1 with vs. without compound 1a (2 µM).
# All compounds are type II and display the same shift as the example above.
# as §2
# CYP2D6 = biological target: T3, CYP2D6 (Homo sapiens, UniProt P10635); test: CYP2D6 dextromethorphan metabolism inhibition assay; format: biochemical; details: for IC50: dextromethorphan metabolism
# T3 construct: made in house
# From the text: (§3) In human drug metabolism, CYP3A4 and CYP2D6 are dominant enzymes and undesired inhibition could potentially alter the pharmacokinetics and reduce the clearance of co-administered drugs. CYP3A4 is particularly important in this respect, with a large and flexible active site able to accommodate many different molecular scaffolds including steroids. […] The most similar steroidogenic human enzyme to CYP17A1 is CYP21A2, which also uses progesterone as a substrate, in this case to form 21-hydroxyprogesterone. Undesired inhibition of this enzyme could adversely impact the biosynthesis of the corticosteroids cortisol and aldosterone which control stress/immune responses and blood pressure, respectively. Abiraterone itself has this liability and is thus co-administered with the synthetic corticosteroid prednisone. […] However, at the same time it might be possible to achieve similar results by altering the nitrogen atom position in the pyridine fragment in compound 1e. Further optimization of 1c is required to eliminate off-target effects on the steroidogenic human CYP21A2 enzyme to prevent disruption of glucocorticoid and mineralocorticoid biosynthesis in vivo. This might be achieved by adding substituents compatible with the CYP17A1 active site topography forming interactions with the bordering Arg239 and/or Asp298 residues, but incompatible with the more spatially constrained CYP21A2 active site, as has been accomplished for abiraterone.
# (§4) Selected inhibitors were tested for off-target inhibition of purified recombinant human CYP3A4 nifedipine metabolism and CYP2D6 dextromethorphan metabolism as described with minor modifications. CYP3A4 nifedipine (purchased from Sigma-Aldrich, St. Louis, MO, USA) activity assays were carried out with 200 µM nifedipine for 30 min. The CYP2D6 dextrometorphan (purchased from Sigma-Aldrich, St. Louis, MO, USA) assays were carried out with 100 µM DXM. Inhibition of steroidogenic cytochrome P450 21A2 progesterone 21-hydroxylation was evaluated as reported.
# (§5) IC50 curves for compounds inhibiting CYP17A1 progesterone 17-hydroxylation (black circles), […]
# cytochrome P450 21A2 = biological target: T4, cytochrome P450 21A2 (Homo sapiens, UniProt P08686); test: CYP21A2 progesterone 21-hydroxylation inhibition assay; format: biochemical; details: for IC50: progesterone 21-hydroxylation
# T4 construct: made in house
# T4 sequence (P08686 1-495): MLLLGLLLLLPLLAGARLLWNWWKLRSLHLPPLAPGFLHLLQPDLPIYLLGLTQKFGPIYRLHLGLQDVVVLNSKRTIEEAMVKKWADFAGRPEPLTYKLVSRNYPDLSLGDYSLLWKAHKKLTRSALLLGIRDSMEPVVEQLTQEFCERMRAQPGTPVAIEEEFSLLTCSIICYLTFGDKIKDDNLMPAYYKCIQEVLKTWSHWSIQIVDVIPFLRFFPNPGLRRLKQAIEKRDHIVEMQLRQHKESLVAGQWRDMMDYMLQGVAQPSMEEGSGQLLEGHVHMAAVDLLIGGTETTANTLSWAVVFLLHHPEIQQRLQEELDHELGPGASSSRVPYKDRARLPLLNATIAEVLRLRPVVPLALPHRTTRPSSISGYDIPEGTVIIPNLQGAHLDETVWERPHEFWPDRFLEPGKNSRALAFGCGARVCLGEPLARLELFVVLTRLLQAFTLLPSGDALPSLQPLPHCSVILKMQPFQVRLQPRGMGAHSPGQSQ
# From the text: as §3, §4, §5
# BJ hTERT fibroblasts = test: Proliferation screening in non-cancerous fibroblasts; format: cell-based; details: 10 µM, 48 h
# Experimental: (§6) Next, we tested the effect of compounds 1a–1e on prostate cancer derived cell lines. The anti-proliferative activity was determined in vitro by adding 10 µM compound to each of three prostate cancer cell lines (LNCaP, DU145, and PC3). As an additional comparison, immortalized non-cancerous fibroblasts (BJ hTERT) were used. These cancer cell lines are considered the classic standard of PCa cell culture. Since these cell lines grew at very different rates, inhibition of growth rate (GR) was used as a metric. All compounds except 1e were non-toxic to non-cancerous cells. Compounds 1a and 1c were both cytotoxic in the PC3 cell line (Figure 3). […] DU145 cells were weakly affected by only compound 1e with growth rate inhibition more than 50% (GR < 0.5). […] We observed substantial susceptibility of PC3 cells in comparison to DU145 (see Supplementary Materials S3 for GR50 in PC3 cells). These two cell lines are similar in many respects. […]
# as §1
# human CYP3A4 = biological target: T5, human CYP3A4 (Homo sapiens, UniProt P08684); test: CYP3A4 nifedipine metabolism inhibition assay; format: biochemical; details: concentrations up to 10 µM
# T5 construct: made in house
# From the text: as §3, with “Further optimization of 1c is required to eliminate off-target effects on the steroidogenic human CYP21A2 enzyme to prevent disruption of glucocorticoid and mineralocorticoid biosynthesis in vivo. This might be achieved by adding substituents compatible with the CYP17A1 active site topography forming interactions with the bordering Arg239 and/or Asp298 residues, but incompatible with the more spatially constrained CYP21A2 active site, as has been accomplished for abiraterone.” left out
# Selected inhibitors were tested for off-target inhibition of purified recombinant human CYP3A4 nifedipine metabolism and CYP2D6 dextromethorphan metabolism as described with minor modifications. […] Inhibition of steroidogenic cytochrome P450 21A2 progesterone 21-hydroxylation was evaluated as reported. […]
# DU145 cells = test: Prostate cancer cell line proliferation screening (GR), DU145; format: cell-based, human
# Experimental: as §6, §1
# T3 sequence (P10635 whole entry): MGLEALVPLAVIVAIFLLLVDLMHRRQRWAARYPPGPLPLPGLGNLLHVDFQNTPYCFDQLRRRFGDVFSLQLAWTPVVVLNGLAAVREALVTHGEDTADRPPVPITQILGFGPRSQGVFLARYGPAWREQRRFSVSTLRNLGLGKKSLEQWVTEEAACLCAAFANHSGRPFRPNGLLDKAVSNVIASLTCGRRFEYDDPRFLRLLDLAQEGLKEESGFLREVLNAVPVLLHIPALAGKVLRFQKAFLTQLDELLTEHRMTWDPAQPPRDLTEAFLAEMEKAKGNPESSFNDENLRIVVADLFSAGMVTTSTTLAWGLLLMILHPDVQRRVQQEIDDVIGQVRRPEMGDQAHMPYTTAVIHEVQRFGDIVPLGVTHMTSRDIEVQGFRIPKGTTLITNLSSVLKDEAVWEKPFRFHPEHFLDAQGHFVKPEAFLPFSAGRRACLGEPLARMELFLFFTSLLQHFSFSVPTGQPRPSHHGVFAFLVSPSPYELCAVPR
# T5 sequence (P08684 whole entry): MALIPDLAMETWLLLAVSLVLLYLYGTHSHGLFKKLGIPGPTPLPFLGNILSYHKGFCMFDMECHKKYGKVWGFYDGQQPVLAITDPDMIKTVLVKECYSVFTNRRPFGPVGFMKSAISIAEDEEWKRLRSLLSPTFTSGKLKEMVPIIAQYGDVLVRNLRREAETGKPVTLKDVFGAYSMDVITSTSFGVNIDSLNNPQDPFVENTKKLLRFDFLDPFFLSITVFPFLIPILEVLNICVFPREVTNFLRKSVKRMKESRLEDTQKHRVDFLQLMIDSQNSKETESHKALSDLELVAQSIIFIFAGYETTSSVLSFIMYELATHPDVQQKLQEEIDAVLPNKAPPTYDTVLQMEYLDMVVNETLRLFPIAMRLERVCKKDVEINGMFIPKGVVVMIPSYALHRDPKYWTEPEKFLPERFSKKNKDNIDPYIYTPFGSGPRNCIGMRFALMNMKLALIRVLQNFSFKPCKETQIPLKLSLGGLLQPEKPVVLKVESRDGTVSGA
smiles,measurement,setting,value
C[C@]12CC[C@H](O)CC1=CC[C@@H]1[C@@H]2CC[C@]2(C)C(c3cccnc3)=CC[C@@H]12 [Abiraterone],IC50,human CYP17A1 [1],80 nM
same,"Antiproliferative response in PC3 cells (growth rate inhibition, in words)",PC3 cells,low antiproliferative activity
same,Kd,[2],< 100 nM
c1ccc2c(c1)ncn2-c1ccc(Nc2ccncc2)cc1 [Compound 1a],IC50,human CYP17A1 [3],8000 nM and 8060 nM
same,"Antiproliferative response in PC3 cells (growth rate inhibition, in words)",PC3 cells,cytotoxic
same,Kd,[4],290 ± 55 nM
c1ccc(Nc2ccc(-n3cnc4ccccc43)cc2)nc1 [Compound 1b],IC50,human CYP17A1 [3],> 10000 nM
same,Kd,[4],420 ± 70 nM
c1cncc(Nc2ccc(-n3cnc4ccccc43)cc2)c1 [Compound 1c],IC50,CYP2D6,> 10000 nM
same,IC50,cytochrome P450 21A2,1500 ± 670 nM
same,Selectivity for CYP17A1 over CYP21A2 inhibition,cytochrome P450 21A2; ratio of IC50 values,two-fold
same,Toxicity to non-cancerous cells (BJ hTERT fibroblasts),BJ hTERT fibroblasts,non-toxicity
same,IC50,human CYP17A1 [3],830 ± 190 nM
same,"Antiproliferative response in PC3 cells (growth rate inhibition, in words)",PC3 cells,cytotoxic; also recorded: high cytotoxicity
same,Kd,[4],96 ± 22 nM
same,IC50,human CYP3A4,> 10000 nM
c1ccc(Nc2ccc(-n3cnc4ccccc43)cc2)cc1 [Compound 1d],IC50,human CYP17A1 [3],1760 ± 190 nM
same,Kd,[4],150 ± 37 nM
c1ccc2c(c1)ccn2-c1ccc(Nc2ccncc2)cc1 [Compound 1e],IC50,CYP2D6,2500 ± 600 nM
same,Fold weaker inhibition of CYP2D6 than of CYP17A1,CYP2D6; ratio of IC50 values,4.5 fold
same,IC50,cytochrome P450 21A2,190 ± 30 nM
same,IC50,human CYP17A1 [3],560 ± 100 nM
same,Kd,[4],120 ± 34 nM
same,Growth rate inhibition value (GR) in DU145 cells,"DU145 cells; 10 µM, 48 h",< 0.5
same,inhibition at 10 µM,"DU145 cells; Homo sapiens, DU-145, 48 h, read-out: Growth rate inhibition in DU145 cells",> 50%
same,IC50,human CYP3A4,> 10000 nM
C[C@]12CC[C@H](O)CC1=CC[C@@H]1[C@@H]2CC[C@]2(C)C(n3cnc4ccccc43)=CC[C@@H]12 [Galeterone],IC50,human CYP17A1 [1],130 nM
same,Kd,[2],< 100 nM
